# Data published in PubChem BioAssay (NCI).
#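 The compound was tested at five concentrations on cells cultured in 96-well plates, with a 48-hour exposure period. At the TGI there is no net growth.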
# How the values were obtained:
# Assay in all cases: DTP human tumour cell line panel, 48 h
# [1] = tested on: NCI-H226 lung
# [2] = tested on: SF-268 CNS
# [3] = tested on: A549 NSCLC
# [4] = tested on: SK-MEL-5 melanoma
# [5] = tested on: UACC-62 melanoma
# [6] = tested on: RPMI-8226 leukemia
# [7] = tested on: CAKI-1 renal
# [8] = tested on: SK-MEL-2 melanoma
# [9] = tested on: MDA-MB-231 breast
# [10] = tested on: SK-MEL-28 melanoma
# [11] = tested on: COLO 205 colon
# [12] = tested on: HCT-15 colon
# [13] = tested on: ACHN renal
# [14] = tested on: OVCAR-4 ovarian
# [15] = tested on: NCI/ADR-RES ovarian
# [16] = tested on: HOP-92 NSCLC
# [17] = tested on: SK-OV-3 ovarian
# [18] = tested on: KM12 colon
# [19] = tested on: SN12C renal
# [20] = tested on: DU-145 prostate
Compound,TGI [1],TGI [2],TGI [3],TGI [4],TGI [5],TGI [6],TGI [7],TGI [8],TGI [9],TGI [10],TGI [11],TGI [12],TGI [13],TGI [14],TGI [15],TGI [16],TGI [17],TGI [18],TGI [19],TGI [20]
OCCCCCCCCCCCOc1ccc(C2OCC3(CC=CCC3)CO2)cc1 (stereo not given),52.9 µM,40.9 µM,45.7 µM,80.2 µM,32.8 µM,> 100 µM,31.1 µM,> 100 µM,31.4 µM,42.4 µM,46.8 µM,32.3 µM,33.3 µM,34 µM,36.3 µM,32.8 µM,37 µM,28.7 µM,36.8 µM,32.6 µM
C=C1CC(C)(COc2ccc3c(C)cc(=O)oc3c2)OC1=O (stereo not given),26.2 µM,20.2 µM,23.8 µM,3.37 µM,4.8 µM,2.57 µM,7.53 µM,5.18 µM,15.5 µM,9.02 µM,2.86 µM,4.23 µM,7.37 µM,9.06 µM,17.6 µM,3.25 µM,15.1 µM,17.4 µM,16.8 µM,8.96 µM
COc1ccc2c(c1)CCc1c-2n(CCN2CCOCC2)c2ccc(OC)cc12,> 100 µM,> 100 µM,> 100 µM,> 100 µM,> 100 µM,> 100 µM,> 100 µM,> 100 µM,> 100 µM,> 100 µM,> 100 µM,> 100 µM,> 100 µM,> 100 µM,> 100 µM,> 100 µM,> 100 µM,> 100 µM,> 100 µM,> 100 µM
C#CC(O)/C=C/C(O)CCCC(O)CC#CC(O)C#CC(O)CCCC(O)/C=C/CCCCCC(=O)CCCCCCCCCCCCCC(O)C(O)C#CC(=O)O (stereo not given),> 50 µM,> 50 µM,> 50 µM,> 50 µM,> 50 µM,> 50 µM,> 50 µM,47.3 µM,24.6 µM,25 µM,> 50 µM,> 50 µM,> 50 µM,17.9 µM,> 50 µM,27.1 µM,> 50 µM,> 50 µM,> 50 µM,> 50 µM
CCCCCC(=Nc1n[nH]nc1C(N)=O)OCC,> 100 µM,> 100 µM,> 100 µM,> 100 µM,> 100 µM,> 100 µM,> 100 µM,> 100 µM,> 100 µM,> 100 µM,> 100 µM,> 100 µM,> 100 µM,> 100 µM,> 100 µM,> 100 µM,> 100 µM,> 100 µM,> 100 µM,> 100 µM
COc1ccc2c(c1)/C(=C\c1c(Cl)n(-c3ccccc3)c3ccccc13)C(=O)N2,24.5 µM,20.3 µM,51.4 µM,21.3 µM,32.6 µM,45.4 µM,56.7 µM,51.1 µM,> 100 µM,> 100 µM,21.9 µM,25.3 µM,45.1 µM,41.4 µM,7.98 µM,17.6 µM,> 100 µM,14.7 µM,35.5 µM,21.4 µM
COc1cc2c(cc1OC)C(=O)/C(=C/c1cc(Cl)cc(Cl)c1)C2,> 100 µM,> 100 µM,> 100 µM,> 24.1 µM,> 95.8 µM,> 100 µM,> 100 µM,> 95 µM,> 100 µM,> 100 µM,> 100 µM,> 100 µM,> 100 µM,98.1 µM,10.4 µM,99.6 µM,> 54.6 µM,> 21.4 µM,> 100 µM,> 100 µM
O=C1N(CN2CCOCC2)CN(CN2CCOCC2)C(=O)N1Cc1ccc(CN2C(=O)N(CN3CCOCC3)CN(CN3CCOCC3)C2=O)cc1,> 100 µM,> 100 µM,> 100 µM,> 100 µM,85.4 µM,89.5 µM,> 100 µM,39.8 µM,> 100 µM,> 100 µM,> 100 µM,> 100 µM,> 100 µM,> 100 µM,> 100 µM,> 100 µM,> 100 µM,> 100 µM,> 100 µM,> 100 µM
